Among the data in patent EP4477653A1 (Perha Pharmaceuticals, priority 2023, dated 2024) are IC50 values, retold here.

The test deals with T1, human recombinant A3AR (expressed in HEK-293 cells) (Homo sapiens, UniProt P0DMS8).
T1 construct: host or cells: HEK-293 cells
T1 sequence (P0DMS8 1-318): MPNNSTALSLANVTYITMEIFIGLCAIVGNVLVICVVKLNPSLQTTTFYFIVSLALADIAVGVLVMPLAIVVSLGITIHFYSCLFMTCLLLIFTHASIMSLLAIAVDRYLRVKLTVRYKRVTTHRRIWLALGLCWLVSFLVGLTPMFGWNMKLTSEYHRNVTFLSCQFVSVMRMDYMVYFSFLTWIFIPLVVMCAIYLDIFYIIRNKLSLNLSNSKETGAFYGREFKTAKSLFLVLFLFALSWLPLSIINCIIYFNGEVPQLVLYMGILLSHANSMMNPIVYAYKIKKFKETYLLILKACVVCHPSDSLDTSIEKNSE
The test is described as follows: Adenosine receptors antagonism assay (Eurofins), [125I]-AB-MECA radioligand competition. Type of test: binding. The settings on record: [125I]-AB-MECA 0.15 nM, r.t., 120 min; IC50 from dose-response curves; read-out: Potency Class A3AR. For orientation: In a radioligand displacement assay an active substance lowers the binding of a labelled ligand.
Turning to `CC(C)c1nnc2c(NCc3ccccc3O)cc(N[C@@H]3CCCOC3)nn12` [compound 43, 2-[[[3-isopropyl-6-[[(3R)-tetrahydropyran-3-yl]amino]-[1,2,4]triazolo[4,3-b]pyridazin-8-yl]amino]methyl]phenol], the IC50 fell in the range of 10 to 100 nM.

As for `CCc1nnc2c(NCc3ccccn3)cc(NC(CC)CC)nn12` [compound 59, 3-ethyl-N6-(1-ethylpropyl)-N8-(2-pyridylmethyl)-[1,2,4]triazolo[4,3-b]pyridazine-6,8-diamine], the IC50 lay in the range of 1 to 10 nM. With `COCCNc1cc(NCc2ccccc2)c2nnc(C(C)C)n2n1` [compound 12, N8-benzyl-3-isopropyl-N6-(2-methoxyethyl)-[1,2,4]triazolo[4,3-b]pyridazine-6,8-diamine] the figure was 100 to 1000 nM. Under `CC(C)c1nnc2c(NCc3ccccn3)cc(NC3CC4(CCC4)C3)nn12` [compound 53, 3-isopropyl-N8-(2-pyridylmethyl)-N6-spiro[3.3]heptan-2-yl-[1,2,4]triazolo[4,3-b]pyridazine-6,8-diamine] stands 1 to 10 nM; under `CCC(CC)Nc1cc(NCc2cccc(N)c2)c2nnc(C(C)C)n2n1` [compound 76, N8-[(3-aminophenyl)methyl]-N6-(1-ethylpropyl)-3-isopropyl-[1,2,4]triazolo[4,3-b]pyridazine-6,8-diamine], 1 to 10 nM.

For the compound `CCC(CC)Nc1cc(NCCc2ccncc2)c2nnc(C(C)C)n2n1` [compound 85, N6-(1-ethylpropyl)-3-isopropyl-N8-[2-(4-pyridyl)ethyl]-[1,2,4]triazolo[4,3-b]pyridazine-6,8-diamine], the IC50 fell in the range of 1 to 10 nM. With `CC[C@@H](CO)Nc1cc(NCc2ccc(-c3ccncc3)cc2)c2nnc(C(C)C)n2n1` [compound 103, (2S)-2-[[3-isopropyl-8-[[4-(4-pyridyl)phenyl]methylamino]-[1,2,4]triazolo[4,3-b]pyridazin-6-yl]amino]butan-1-ol] the figure was 10 to 100 nM; with `CCC(CC)CNc1cc(NCc2ccccn2)c2nnc(C3CC3)n2n1` [compound 196, 3-cyclopropyl-N6-(2-ethylbutyl)-N8-(pyridin-2-ylmethyl)-[1,2,4]triazolo[4,3-b]pyridazine-6,8-diamine], 1 to 10 nM; with `CC[C@@H](CO)Nc1cc(NCc2ccc(-c3cccnc3)cc2)c2nnc(C(C)C)n2n1` [compound 104, (2S)-2-[[3-isopropyl-8-[[4-(3-pyridyl)phenyl]methylamino]-[1,2,4]triazolo[4,3-b]pyridazin-6-yl]amino]butan-1-ol], 10 to 100 nM. With `CC(C)c1nnc2c(NCc3ccccn3)cc(NC3CCC(F)(F)CC3)nn12` [compound 55, N6-(4,4-difluorocyclohexyl)-3-isopropyl-N8-(2-pyridylmethyl)-[1,2,4]triazolo[4,3-b]pyridazine-6,8-diamine], the IC50 fell in the range of 10 to 100 nM. For `CC(C)Nc1cc(NCc2ccccn2)c2nnc(C3CC3)n2n1` [compound 192, 3-cyclopropyl-N6-isopropyl-N8-(pyridin-2-ylmethyl)-[1,2,4]triazolo[4,3-b]pyridazine-6,8-diamine], the IC50 lay within 1 to 10 nM. Turning to `CCC(CC)Nc1cc(Nc2ncccc2OC)c2nnc(C(C)C)n2n1` [compound 157, 3-isopropyl-N8-(3-methoxypyridin-2-yl)-N6-(pentan-3-yl)-[1,2,4]triazolo[4,3-b]pyridazine-6,8-diamine], the IC50 is 10 to 100 nM. As to `COCCCCNc1cc(NCc2ccccc2)c2nnc(C(C)C)n2n1` [compound 14, N8-benzyl-3-isopropyl-N6-(4-methoxybutyl)-[1,2,4]triazolo[4,3-b]pyridazine-6,8-diamine], the IC50 lay in the range of 10 to 100 nM. With `COCCCNc1cc(NCc2ccccc2)c2nnc(C)n2n1` [compound 32, N8-benzyl-N6-(3-methoxypropyl)-3-methyl-[1,2,4]triazolo[4,3-b]pyridazine-6,8-diamine] the figure was 100 to 1000 nM; with `CCC(CC)Nc1cc(Nc2cccnc2)c2nnc(C(C)C)n2n1` [compound 47, N6-(1-ethylpropyl)-3-isopropyl-N8-(3-pyridyl)-[1,2,4]triazolo[4,3-b]pyridazine-6,8-diamine], less than 1 nM. Take `CC(C)c1nnc2c(NCc3ccccc3)cc(NCCCO)nn12` [compound 9, 3-[[8-(benzylamino)-3-isopropyl-[1,2,4]triazolo[4,3-b]pyridazin-6-yl]amino]propan-1-ol]: the IC50 was 100 to 1000 nM. As to `CCC(CC)Nc1cc(NCc2ccncc2)c2nnc(C(C)C)n2n1` [compound 49, N6-(1-ethylpropyl)-3-isopropyl-N8-(4-pyridylmethyl)-[1,2,4]triazolo[4,3-b]pyridazine-6,8-diamine], the IC50 lay in the range of 1 to 10 nM. With `CC(C)c1nnc2c(NCc3ccccn3)cc(NC(C)(C)C)nn12` [compound 52, N6-tert-butyl-3-isopropyl-N8-(2-pyridylmethyl)-[1,2,4]triazolo[4,3-b]pyridazine-6,8-diamine] the figure was 1 to 10 nM. In the case of `CC(C)CNc1cc(NCc2ccccn2)c2nnc(C3CC3)n2n1` [compound 194, 3-cyclopropyl-N6-isobutyl-N8-(pyridin-2-ylmethyl)-[1,2,4]triazolo[4,3-b]pyridazine-6,8-diamine], the IC50 is 10 to 100 nM. `CC(C)c1nnc2c(NCc3ccccc3)cc(NC3CCOCC3)nn12` [compound 23, N8-benzyl-3-isopropyl-N6-tetrahydropyran-4-yl-[1,2,4]triazolo[4,3-b]pyridazine-6,8-diamine]: the IC50 lay within 10 to 100 nM. With `CC(C)c1nnc2c(NCCc3ccccn3)cc(NC3CCCC3)nn12` [compound 165, N6-cyclopentyl-3-isopropyl-N8-[2-(2-pyridyl)ethyl]-[1,2,4]triazolo[4,3-b]pyridazine-6,8-diamine] the figure was 1 to 10 nM. With `CC(C)c1nnc2c(NCc3ccccc3)cc(NC(CO)CO)nn12` [compound 3, 2-[[8-(benzylamino)-3-isopropyl-[1,2,4]triazolo[4,3-b]pyridazin-6-yl]amino]propane-1,3-diol] the figure was 100 to 1000 nM; with `CCC(CC)Nc1cc(NC(=O)c2ccccn2)c2nnc(C(C)C)n2n1` [compound 97, N-[6-(1-ethylpropylamino)-3-isopropyl-[1,2,4]triazolo[4,3-b]pyridazin-8-yl]pyridine-2-carboxamide], 10 to 100 nM; with `CC(C)c1nnc2c(NCc3ccccn3)cc(NC3CC(F)(F)C3)nn12` [compound 54, N6-(3,3-difluorocyclobutyl)-3-isopropyl-N8-(2-pyridylmethyl)-[1,2,4]triazolo[4,3-b]pyridazine-6,8-diamine], 10 to 100 nM. On to `CCC(CC)Nc1cc(Nc2ncccn2)c2nnc(C(C)C)n2n1` [compound 152, 3-isopropyl-N6-(pentan-3-yl)-N8-(pyrimidin-2-yl)-[1,2,4]triazolo[4,3-b]pyridazine-6,8-diamine], for which the IC50 fell in the range of 10 to 100 nM. In the case of `CCC(CC)Nc1cc(NCc2ccccn2)c2nnc(CC(C)C)n2n1` [compound 69, N6-(1-ethylpropyl)-3-isobutyl-N8-(2-pyridylmethyl)-[1,2,4]triazolo[4,3-b]pyridazine-6,8-diamine], the IC50 was in the range of 10 to 100 nM. With `CCC(CC)Nc1cc(NCc2ccccn2)c2nnc(C)n2n1` [compound 58, N6-(1-ethylpropyl)-3-methyl-N8-(2-pyridylmethyl)-[1,2,4]triazolo[4,3-b]pyridazine-6,8-diamine] the figure was 10 to 100 nM. On to `COc1ccc(CN(C)c2cc(NCc3ccccn3)c3nnc(C4CC4)n3n2)cc1` [compound 188, 3-cyclopropyl-N6-(4-methoxybenzyl)-N6-methyl-N8-(pyridin-2-ylmethyl)-[1,2,4]triazolo[4,3-b]pyridazine-6,8-diamine], for which the IC50 was in the range of 100 to 1000 nM.

Consider `CC[C@H](CO)Nc1cc(NCCc2ccccn2)c2nnc(C3CC3)n2n1` [compound 185, (2R)-2-[[3-cyclopropyl-8-[2-(2-pyridyl)ethylamino]-[1,2,4]triazolo[4,3-b]pyridazin-6-yl]amino]butan-1-ol], for which the IC50 was 10 to 100 nM. Under `CC[C@@H](CO)Nc1cc(NCc2ccc(-c3ccccn3)cc2)c2nnc(C(C)C)n2n1` [compound 105, (2S)-2-[[3-isopropyl-8-[[4-(2-pyridyl)phenyl]methylamino]-[1,2,4]triazolo[4,3-b]pyridazin-6-yl]amino]butan-1-ol] stands 10 to 100 nM; under `CC[C@H](CO)Nc1cc(Nc2cccnn2)c2nnc(C3CC3)n2n1` [compound 181, (R)-2-((3-cyclopropyl-8-(pyridazin-3-ylamino)-[1,2,4]triazolo[4,3-b]pyridazin-6-yl)amino)butan-1-ol], less than 1 nM; under `c1ccc(CNc2cc(NCc3ccccn3)c3nnc(C4CC4)n3n2)cc1` [compound 186, N6-benzyl-3-cyclopropyl-N8-(pyridin-2-ylmethyl)-[1,2,4]triazolo[4,3-b]pyridazine-6,8-diamine], 1 to 10 nM.

With `CC(C)c1nnc2c(NCc3ccccc3)cc(N3CCOCC3)nn12` [compound 6, N-benzyl-3-isopropyl-6-morpholino-[1,2,4]triazolo[4,3-b]pyridazin-8-amine], the IC50 lay in the range of 100 to 1000 nM. With `c1ccc(CNc2cc(NC3CCCCCC3)nn3c(C4CC4)nnc23)nc1` [compound 201, N6-cycloheptyl-3-cyclopropyl-N8-(pyridin-2-ylmethyl)-[1,2,4]triazolo[4,3-b]pyridazine-6,8-diamine] the figure was 1 to 10 nM; with `CNc1cc(NCc2ccc(Br)cc2)c2nnc(C(C)C)n2n1` [compound 116, N8-[(4-bromophenyl)methyl]-3-isopropyl-N6-methyl-[1,2,4]triazolo[4,3-b]pyridazine-6,8-diamine], 100 to 1000 nM.
